Measurements taken from ChEMBL document CHEMBL5113438, “Discovery of highly potent and selective CRBN-recruiting EGFRL858R/T790M degraders in vivo” (Eur J Med Chem, 2022).
The source made the active and inactive calls. No cut-off for these calls is given here.

Legend:
[1] = AUC (0 to t) in Sprague-Dawley rat at 1 mg/kg, iv measured upto 24 hrs by LC-MS/MS analysis; format: ADME, organism-based; parameters: time < 24 hrs, dose 1 mg/kg, route iv; details: in vivo
[2] = biological target: Protein cereblon/Epidermal growth factor receptor (Homo sapiens, UniProt P00533+Q96SW2, L858R/T790M); assay: Protac activity at CRBN/EGFR L858R/T790M mutant in human NCI-H1975 cells assessed as induction of EGFR degradation incubated for 72 hrs by Western blot analysis; format: cell-based
Protein cereblon/Epidermal growth factor receptor, sequence (P00533 25-1210 T790M/L858R limits assumed, stated change not applied): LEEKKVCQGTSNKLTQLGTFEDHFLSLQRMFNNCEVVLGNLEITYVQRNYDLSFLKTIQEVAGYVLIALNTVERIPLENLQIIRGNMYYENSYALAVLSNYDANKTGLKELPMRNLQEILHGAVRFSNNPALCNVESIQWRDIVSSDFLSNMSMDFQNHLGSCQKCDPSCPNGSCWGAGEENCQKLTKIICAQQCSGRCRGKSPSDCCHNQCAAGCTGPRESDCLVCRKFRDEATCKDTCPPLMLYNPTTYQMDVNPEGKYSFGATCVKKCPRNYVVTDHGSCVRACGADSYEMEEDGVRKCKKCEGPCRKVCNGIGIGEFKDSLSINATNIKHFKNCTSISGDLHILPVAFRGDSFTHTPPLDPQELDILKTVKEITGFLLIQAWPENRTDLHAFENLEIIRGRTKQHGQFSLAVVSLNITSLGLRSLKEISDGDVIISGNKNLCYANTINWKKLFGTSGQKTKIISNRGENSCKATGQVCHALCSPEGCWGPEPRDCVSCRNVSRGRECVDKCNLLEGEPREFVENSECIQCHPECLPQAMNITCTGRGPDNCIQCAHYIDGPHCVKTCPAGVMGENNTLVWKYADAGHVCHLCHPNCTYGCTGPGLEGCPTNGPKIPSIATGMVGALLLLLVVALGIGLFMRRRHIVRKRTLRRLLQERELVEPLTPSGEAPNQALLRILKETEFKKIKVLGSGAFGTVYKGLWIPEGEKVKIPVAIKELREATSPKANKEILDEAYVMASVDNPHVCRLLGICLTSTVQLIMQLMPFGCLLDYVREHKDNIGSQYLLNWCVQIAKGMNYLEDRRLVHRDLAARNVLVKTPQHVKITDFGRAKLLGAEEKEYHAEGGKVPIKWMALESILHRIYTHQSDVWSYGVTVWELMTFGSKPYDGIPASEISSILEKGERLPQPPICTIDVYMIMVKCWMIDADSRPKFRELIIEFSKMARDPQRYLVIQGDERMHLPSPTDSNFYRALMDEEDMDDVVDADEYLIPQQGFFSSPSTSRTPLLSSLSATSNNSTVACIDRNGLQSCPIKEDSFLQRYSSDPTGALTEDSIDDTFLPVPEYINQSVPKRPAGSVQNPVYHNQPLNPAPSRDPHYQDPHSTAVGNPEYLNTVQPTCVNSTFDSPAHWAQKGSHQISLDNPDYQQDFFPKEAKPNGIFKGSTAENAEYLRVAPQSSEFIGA
Protein cereblon/Epidermal growth factor receptor, sequence (Q96SW2 whole entry, stated change not applied): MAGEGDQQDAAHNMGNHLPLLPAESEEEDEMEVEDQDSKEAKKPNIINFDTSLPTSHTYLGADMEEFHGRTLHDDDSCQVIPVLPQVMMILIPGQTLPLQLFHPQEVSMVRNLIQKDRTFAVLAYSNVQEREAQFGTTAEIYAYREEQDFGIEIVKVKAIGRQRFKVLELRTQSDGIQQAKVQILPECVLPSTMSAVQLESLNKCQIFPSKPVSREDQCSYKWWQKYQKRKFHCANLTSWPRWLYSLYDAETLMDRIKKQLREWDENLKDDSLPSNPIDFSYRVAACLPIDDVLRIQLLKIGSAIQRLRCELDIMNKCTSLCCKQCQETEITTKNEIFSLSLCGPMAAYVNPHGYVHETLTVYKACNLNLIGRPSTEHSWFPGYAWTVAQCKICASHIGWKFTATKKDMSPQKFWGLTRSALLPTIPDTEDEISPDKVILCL

[3] = Cmax in Sprague-Dawley rat at 10 mg/kg, ip measured upto 24 hrs by LC-MS/MS analysis; format: ADME, organism-based; parameters: time < 24 hrs, dose 10 mg/kg, route ip; details: in vivo
[4] = AUC (0 to infinity) in Sprague-Dawley rat at 1 mg/kg, iv measured upto 24 hrs by LC-MS/MS analysis; format: ADME, organism-based; parameters: dose 1 mg/kg, time < 24 hrs, route iv; details: in vivo
[5] = test system: NCI-H1299; assay: Induction of apoptosis in human NCI-H1299 cells assessed as late apoptotic cells at 1.0 uM incubated for 48 hrs by AnnexinV-FITC/propidium iodide staining based flow cytometry analysis (reference value: 1.53 % ); format: functional
[6] = test system: NCI-H1299; assay: Induction of apoptosis in human NCI-H1299 cells assessed as necrotic cells at 0.1 uM incubated for 48 hrs by AnnexinV-FITC/propidium iodide staining based flow cytometry analysis (reference value: 0.24 % ); format: functional
[7] = test system: NCI-H1299; assay: Induction of apoptosis in human NCI-H1299 cells assessed as necrotic cells at 1.0 uM incubated for 48 hrs by AnnexinV-FITC/propidium iodide staining based flow cytometry analysis (reference value: 0.24 % ); format: functional
[8] = test system: Epidermal growth factor receptor (Homo sapiens), P00533 [L858R,T790M]; assay: Inhibition of EGFR L858R/T790M mutant phosphorylation in human NCI-H1975 cells at 1 uM measured after 48 hrs by Western blot assay; format: cell-based
Epidermal growth factor receptor (Homo sapiens), P00533 [L858R,T790M], sequence (P00533 whole entry T790M/L858R, looked up): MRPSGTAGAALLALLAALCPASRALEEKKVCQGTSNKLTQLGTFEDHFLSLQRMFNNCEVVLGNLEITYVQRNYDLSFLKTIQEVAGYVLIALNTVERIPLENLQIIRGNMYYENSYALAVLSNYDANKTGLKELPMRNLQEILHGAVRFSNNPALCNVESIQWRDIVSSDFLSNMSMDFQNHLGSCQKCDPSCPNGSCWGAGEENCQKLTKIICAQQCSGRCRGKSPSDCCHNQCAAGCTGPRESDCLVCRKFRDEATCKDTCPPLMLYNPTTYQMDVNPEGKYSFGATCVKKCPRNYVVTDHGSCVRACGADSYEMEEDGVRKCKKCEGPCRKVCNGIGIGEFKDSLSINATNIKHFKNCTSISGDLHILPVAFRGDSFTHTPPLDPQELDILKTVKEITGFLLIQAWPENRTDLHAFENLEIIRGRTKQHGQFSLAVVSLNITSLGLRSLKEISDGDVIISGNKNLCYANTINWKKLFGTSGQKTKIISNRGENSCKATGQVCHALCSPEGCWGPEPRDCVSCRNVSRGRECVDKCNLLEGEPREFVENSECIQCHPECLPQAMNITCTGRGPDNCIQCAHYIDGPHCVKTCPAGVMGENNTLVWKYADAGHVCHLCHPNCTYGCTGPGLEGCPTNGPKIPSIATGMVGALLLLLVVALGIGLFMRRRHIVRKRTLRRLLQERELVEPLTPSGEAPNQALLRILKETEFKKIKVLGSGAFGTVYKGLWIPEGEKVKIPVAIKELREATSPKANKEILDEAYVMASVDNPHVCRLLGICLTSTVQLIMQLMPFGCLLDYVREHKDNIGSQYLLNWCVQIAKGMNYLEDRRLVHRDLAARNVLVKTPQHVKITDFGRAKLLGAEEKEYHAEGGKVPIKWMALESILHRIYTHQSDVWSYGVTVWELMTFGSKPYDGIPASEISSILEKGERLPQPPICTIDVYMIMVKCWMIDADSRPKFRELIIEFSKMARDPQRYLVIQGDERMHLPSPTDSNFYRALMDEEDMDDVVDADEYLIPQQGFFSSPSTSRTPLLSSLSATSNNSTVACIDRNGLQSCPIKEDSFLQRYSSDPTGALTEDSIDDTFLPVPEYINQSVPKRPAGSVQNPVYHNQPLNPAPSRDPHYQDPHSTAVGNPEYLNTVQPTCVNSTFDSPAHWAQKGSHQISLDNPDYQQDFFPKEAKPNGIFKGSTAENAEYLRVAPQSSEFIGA

[9] = test system: Epidermal growth factor receptor (Homo sapiens), P00533 [L858R,T790M]; assay: Inhibition of EGFR L858R/T790M mutant phosphorylation in human NCI-H1975 cells preincubated under serum starvation for 8 hrs followed by compound addition measured after 48 hrs by Western blot analysis; format: cell-based; details: dose 10-1000 nM, DDE = dose-dependent effect
[10] = test system: NCI-H1975; assay: Antitumor activity against human NCI-H1975 cells xenografted in […] mouse assessed as tumor growth inhibition at 10 mg/kg, ip administered once daily for 24 days relative to control; format: functional; details: NCI-H1975, 576 h, time 24 day, read-out: TGI
[11] = Plasma protein binding in rat assessed as unbound fraction at 1 uM incubated for 4 hrs by rapid equilibrium dialysis method; format: ADME, cell-free; details: read-out: PPB (converted)
[12] = test system: NCI-H1975; assay: Induction of apoptosis in human NCI-H1975 cells assessed as early apoptotic cells at 1.0 uM incubated for 48 hrs by AnnexinV-FITC/propidium iodide staining based flow cytometry analysis (reference value: 0.11 % ); format: functional
[13] = biological target: Protein cereblon/Epidermal growth factor receptor (Homo sapiens) (UniProt P00533+Q96SW2); assay: Protac activity at CRBN/EGFR in human NCI-H1975 cells assessed as induction of EGFR degradation pretreated for 12 hrs followed by compound washout and replaced with fresh medium for 1 hr and measured after 48 hrs post compound washout by Western blot analysis; format: cell-based
Protein cereblon/Epidermal growth factor receptor (Homo sapiens), sequence (P00533 25-1210 limits assumed): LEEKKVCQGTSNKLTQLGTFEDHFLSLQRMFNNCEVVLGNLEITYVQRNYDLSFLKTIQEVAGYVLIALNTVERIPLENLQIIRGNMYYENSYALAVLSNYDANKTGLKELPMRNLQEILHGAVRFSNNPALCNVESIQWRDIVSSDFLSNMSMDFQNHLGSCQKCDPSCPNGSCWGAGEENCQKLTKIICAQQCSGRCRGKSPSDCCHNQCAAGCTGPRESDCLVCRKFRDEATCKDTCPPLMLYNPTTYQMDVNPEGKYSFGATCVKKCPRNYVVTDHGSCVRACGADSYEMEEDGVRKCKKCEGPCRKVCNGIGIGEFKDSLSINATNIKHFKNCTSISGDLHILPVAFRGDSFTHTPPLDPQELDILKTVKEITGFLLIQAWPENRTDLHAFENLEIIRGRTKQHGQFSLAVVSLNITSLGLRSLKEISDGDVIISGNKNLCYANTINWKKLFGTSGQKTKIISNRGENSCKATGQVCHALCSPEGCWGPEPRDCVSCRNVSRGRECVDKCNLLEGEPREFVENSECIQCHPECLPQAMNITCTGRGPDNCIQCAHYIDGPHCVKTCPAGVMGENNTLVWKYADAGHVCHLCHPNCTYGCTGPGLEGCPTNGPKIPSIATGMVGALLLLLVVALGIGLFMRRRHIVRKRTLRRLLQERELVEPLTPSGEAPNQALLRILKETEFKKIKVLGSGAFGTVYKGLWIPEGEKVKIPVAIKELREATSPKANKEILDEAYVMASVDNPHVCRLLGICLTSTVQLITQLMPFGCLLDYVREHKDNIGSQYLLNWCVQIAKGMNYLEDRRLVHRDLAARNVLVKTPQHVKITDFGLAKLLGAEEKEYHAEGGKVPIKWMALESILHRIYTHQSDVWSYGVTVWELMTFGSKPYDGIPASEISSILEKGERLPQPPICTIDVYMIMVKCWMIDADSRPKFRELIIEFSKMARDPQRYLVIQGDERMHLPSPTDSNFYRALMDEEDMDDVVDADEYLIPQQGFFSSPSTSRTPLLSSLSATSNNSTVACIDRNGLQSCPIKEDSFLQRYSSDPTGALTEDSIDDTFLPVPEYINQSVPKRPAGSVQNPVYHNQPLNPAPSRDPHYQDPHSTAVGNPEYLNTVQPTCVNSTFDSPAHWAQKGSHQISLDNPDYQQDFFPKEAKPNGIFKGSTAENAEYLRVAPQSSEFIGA
Protein cereblon/Epidermal growth factor receptor (Homo sapiens), sequence (Q96SW2 whole entry partner): as the sequence (Q96SW2 whole entry, stated change not applied) above

Q: Which AUC(0-t) at 24 h [1] does the source give for `C#CCN(CCC(=O)Nc1cccc2c1CN(C1CCC(=O)NC1=O)C2=O)CCN(C)c1cc(OC)c(Nc2nccc(-c3cn(C)c4ccccc34)n2)cc1NC(=O)C=C` (stereo not given) here?
A: Its AUC(0-t) at 24 h is 0.46 µg·h/mL.

Q: And the EC50 [2]?
A: Its EC50 is 0.0355 µM.

Q: What about the Cmax [3] of the same molecule?
A: The Cmax was 0.197 µg/mL.

Q: What about the AUC(0-inf) ([4]; Sprague-Dawley) of the same molecule?
A: The AUC(0-inf) was 0.461 µg·h/mL.

Q: What about the Activity [5] of the same molecule?
A: The Activity was 2.15%.

Q: What about the Activity [6] of the same molecule?
A: Its Activity is 0.39%.

Q: And the Activity [7]?
A: The Activity was 0.25%.

Q: And the inhibition [8]?
A: The inhibition was “Active”.

Q: What about the inhibition [9] of the same molecule?
A: Its inhibition is “Dde”.

Q: And the inhibition in vivo at 10 mg/kg [10]?
A: Its inhibition in vivo at 10 mg/kg is 55.2%.

Q: And the fraction unbound at 4 h, 1 µM [11]?
A: The fraction unbound at 4 h, 1 µM was 0.001.

Q: What about the Activity [12] of the same molecule?
A: The Activity was 0.55%.

Q: Which results are given for `C#CCN(CCCC(=O)Nc1cccc2c1CN(C1CCC(=O)NC1=O)C2=O)CCN(C)c1cc(OC)c(Nc2nccc(-c3cn(C)c4ccccc34)n2)cc1NC(=O)C=C` (stereo not given)?
A: AUC(0-t) at 24 h [1]: 0.483 µg·h/mL; EC50 [2]: 0.0132 µM; Cmax [3]: 0.128 µg/mL; Activity [13]: Active; AUC ([4]; 24 h): 0.973 µg·h/mL; Activity [5]: 0.37%; Activity [6]: 0.48%; Activity [7]: 0.37%; inhibition [8]: Active; inhibition [9]: Dde; inhibition in vivo at 10 mg/kg [10]: 63.7%; fraction unbound at 4 h, 1 µM [11]: 0.002; Activity [12]: 0.72%
